Where two headings read alike, the source gives them in different places.
Columns and labels:
[1] = tested on: primary peritoneal mouse macrophages (PMM); assay: cells; conditions: Macrophage, read-out: PMM IC50 (uM)
in vitro [2] = conditions: human, HFF-1 cells
in vitro [3] = conditions: human, HepG2 cells
in vitro [4] = conditions: human, microsomes, pH 7.4, HLM CLint (uL/min/mg), human liver microsomes
[5] = tested on: Trypanosoma cruzi, Tulahuen CL2, beta-galactosidase strain; assay: microbe, parasite or virus in culture; conditions: MRC5, read-out: T. cruzi Tulahuen C4 (LacZ) IC50 (uM)
in vitro [6] = conditions: human
[7] = tested on: Leishmania infantum MHOM/MA(BE)/67/ITMAP263 intracellular amastigotes; assay: microbe, parasite or virus in culture; conditions: Macrophage, in Mus musculus
in vitro [8] = conditions: mouse, microsomes, pH 7.4, MLM CLint (uL/min/mg), mouse liver microsomes
in vitro [9] = conditions: PAMPA
physchem = conditions: HPLC, Ascentis Express RP Amide column, pH 7.4, eLogD, experimental
[10] = read-out: L. Inf. pIC50, from L. infantum intracellular amastigote IC50 (converted)
[11] = read-out: L. infantum MHOM/MA(BE)/67/ITMAP263 intracellular amastigotes IC50 (uM), intracellular amastigotes

## COc1ccc(OC)c(S(=O)(=O)N(Cc2ccc(F)cc2)Cc2cnc(OC)nc2OC)c1 [DNDI0003389321]
[1]
  IC50: > 64 µM
In vitro [2]
  CC50: > 64 µM
In vitro [3]
  CC50: > 64 µM
In vitro [4]
  microsomal CLint at 0.5 μM: 270 µL/min/mg
[5]
  IC50: 27.8 µM
In vitro [6]
  CC50 at 3 days: > 64 µM
[7]; [10]
  IC50: 53.7 µM
[7]; [11]
  IC50: 53.8 µM
In vitro [8]
  microsomal CLint at 0.5 μM: 861 µL/min/mg
In vitro [9]
  Papp: 15.2 ×10⁻⁶ cm/s

## COc1ccc(OC)c(S(=O)(=O)N(Cc2ccc(F)cc2)Cc2ccnn2C)c1 [DNDI0003389129]
[1]
  IC50: 45.2 µM
In vitro [2]
  CC50: 26.3 µM
In vitro [3]
  CC50: > 64 µM
In vitro [4]
  microsomal CLint at 0.5 μM: 207 µL/min/mg
[5]
  IC50: 21.1 µM
In vitro [6]
  CC50 at 3 days: > 64 µM
[7]; [10]
  IC50: 5.13 µM
[7]; [11]
  IC50: 5.19 µM
In vitro [8]
  microsomal CLint at 0.5 μM: 1090 µL/min/mg
In vitro [9]
  Papp: 35.6 ×10⁻⁶ cm/s

## COc1ccc(C(=O)N(C)CCO)cc1S(=O)(=O)N(Cc1ccc(F)cc1)Cc1ccc(F)cc1 [DNDI0003371175]
[1]
  IC50: > 64 µM
In vitro [2]
  CC50: 60.2 µM
In vitro [3]
  CC50: 57.6 µM
In vitro [4]
  microsomal CLint at 0.5 μM: 498 µL/min/mg
[5]
  IC50: 25.3 µM
In vitro [6]
  CC50 at 3 days: > 64 µM
[7]; [10]
  IC50: 2.09 µM
[7]; [11]
  IC50: 2.08 µM
physchem
  chromatographic logD: 3.8
In vitro [8]
  microsomal CLint at 0.5 μM: 605 µL/min/mg
In vitro [9]
  Papp: 11.2 ×10⁻⁶ cm/s

## O=S(=O)(c1cccnc1N1CCOCC1)N(Cc1ccc(F)cc1)Cc1ccc(F)cc1 [DNDI0003389119]
[1]
  IC50: > 64 µM
In vitro [2]
  CC50: 29.4 µM
In vitro [3]
  CC50: > 64 µM
In vitro [4]
  microsomal CLint at 0.5 μM: 823 µL/min/mg
[5]
  IC50: 15.1 µM
In vitro [6]
  CC50 at 3 days: > 64 µM
[7]; [10]
  IC50: 2.82 µM
[7]; [11]
  IC50: 2.83 µM
physchem
  chromatographic logD: 4.5
In vitro [8]
  microsomal CLint at 0.5 μM: 738 µL/min/mg
In vitro [9]
  Papp: 3.63 ×10⁻⁶ cm/s

## COc1ccc(C(=O)N2CCOCC2)cc1S(=O)(=O)N(Cc1ccc(F)cc1)Cc1ccc(F)cc1 [DNDI0003371178]
[1]
  IC50: > 64 µM
In vitro [2]
  CC50: 46.9 µM
In vitro [3]
  CC50: 44.5 µM
In vitro [4]
  microsomal CLint at 0.5 μM: 997 µL/min/mg
[5]
  IC50: 50.7 µM
In vitro [6]
  CC50 at 3 days: > 64 µM
[7]; [10]
  IC50: 1.02 µM
[7]; [11]
  IC50: 1.02 µM
physchem
  chromatographic logD: 4
In vitro [8]
  microsomal CLint at 0.5 μM: 984 µL/min/mg
In vitro [9]
  Papp: 9.35 ×10⁻⁶ cm/s

## COc1ccc(CN(Cc2ccc(F)cc2)S(=O)(=O)c2cc(F)ccc2OCC[N+](C)(C)CC(=O)O)cc1 [DNDI0003389931]
[1]
  IC50: > 64 µM
In vitro [2]
  CC50: 61.1 µM
In vitro [3]
  CC50: > 64 µM
In vitro [4]
  microsomal CLint at 0.5 μM: 14 µL/min/mg
[5]
  IC50: 13.1 µM
In vitro [6]
  CC50 at 3 days: > 64 µM
[7]; [10]
  IC50: > 64 µM
[7]; [11]
  IC50: > 64 µM
physchem
  chromatographic logD: 3.8
In vitro [8]
  microsomal CLint at 0.5 μM: 17 µL/min/mg
In vitro [9]
  Papp: 0.36 ×10⁻⁶ cm/s

## COc1ccc(C(=O)N2CCOCC2)cc1S(=O)(=O)N(Cc1ccc(F)cc1)CC(C)C [DNDI0003389127]
[1]
  IC50: > 64 µM
In vitro [2]
  CC50: 8.25 µM
In vitro [3]
  CC50: > 64 µM
In vitro [4]
  microsomal CLint at 0.5 μM: 543 µL/min/mg
[5]
  IC50: 39.1 µM
In vitro [6]
  CC50 at 3 days: > 64 µM
[7]; [10]
  IC50: 6.92 µM
[7]; [11]
  IC50: 6.86 µM
In vitro [8]
  microsomal CLint at 0.5 μM: 355 µL/min/mg
In vitro [9]
  Papp: 17.7 ×10⁻⁶ cm/s

## COc1ccc(C#N)cc1S(=O)(=O)N(Cc1ccc(F)cc1)C1CCOCC1 [DNDI0003388084]
[1]
  IC50: > 64 µM
In vitro [2]
  CC50: 44.1 µM
In vitro [3]
  CC50: > 64 µM
In vitro [4]
  microsomal CLint at 0.5 μM: 194 µL/min/mg
[5]
  IC50: 53.1 µM
In vitro [6]
  CC50 at 3 days: > 64 µM
[7]; [10]
  IC50: > 64 µM
[7]; [11]
  IC50: > 64 µM
In vitro [8]
  microsomal CLint at 0.5 μM: 253 µL/min/mg
In vitro [9]
  Papp: 12.7 ×10⁻⁶ cm/s

## COc1ccc(Cl)cc1S(=O)(=O)N(Cc1ccccc1)C(CO)c1ccc(F)cc1 (centres unmarked) [DNDI0003388149]
[1]
  IC50: > 64 µM
In vitro [2]
  CC50: 1.25 µM
In vitro [3]
  CC50: 15.7 µM
In vitro [4]
  microsomal CLint at 0.5 μM: 18 µL/min/mg
[5]
  IC50: 15.8 µM
In vitro [6]
  CC50 at 3 days: 21.6 µM
[7]; [10]
  IC50: 1.7 µM
[7]; [11]
  IC50: 1.69 µM
In vitro [8]
  microsomal CLint at 0.5 μM: 38 µL/min/mg
In vitro [9]
  Papp: 3.4 ×10⁻⁶ cm/s

## COc1ccc(C(=O)NC2COC2)cc1S(=O)(=O)N(Cc1ccc(F)cc1)Cc1ccc(F)cc1 [DNDI0003371174]
[1]
  IC50: > 64 µM
In vitro [2]
  CC50: > 64 µM
In vitro [3]
  CC50: > 64 µM
In vitro [4]
  microsomal CLint at 0.5 μM: 178 µL/min/mg
[5]
  IC50: 38.5 µM
In vitro [6]
  CC50 at 3 days: > 64 µM
[7]; [10]
  IC50: 0.794 µM
[7]; [11]
  IC50: 0.79 µM
In vitro [8]
  microsomal CLint at 0.5 μM: 395 µL/min/mg
In vitro [9]
  Papp: 4.92 ×10⁻⁶ cm/s
